Molecular target: T1, plasma IDO activity (Mus musculus, UniProt P28776)
T1 construct: host or cells: mice, in vivo
Experiment: not given
Conditions: single administration, blank mice; cited from earlier work

T1 sequence (P28776 whole entry): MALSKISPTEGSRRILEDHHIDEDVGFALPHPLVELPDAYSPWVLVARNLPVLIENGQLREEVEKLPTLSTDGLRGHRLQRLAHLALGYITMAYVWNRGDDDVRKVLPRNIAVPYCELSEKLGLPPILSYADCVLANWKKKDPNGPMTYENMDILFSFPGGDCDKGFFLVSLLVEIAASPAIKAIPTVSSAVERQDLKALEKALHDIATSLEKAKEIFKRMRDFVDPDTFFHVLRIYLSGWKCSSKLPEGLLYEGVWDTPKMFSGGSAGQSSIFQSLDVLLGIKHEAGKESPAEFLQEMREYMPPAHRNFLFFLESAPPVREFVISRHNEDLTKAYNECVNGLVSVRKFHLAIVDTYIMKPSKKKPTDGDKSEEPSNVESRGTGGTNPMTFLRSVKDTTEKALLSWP

In the case of `NS(=O)(=O)NCCNc1nonc1C(=NO)Nc1ccc(F)c(Br)c1` [INCB-024360], the “inhibition of plasma IDO activity” value is given as “effectively inhibit the plasma IDO activity of blank mice to be at the level of IDO-deficient mice”.

Molecular target: T2, indoleamine 2,3-dioxygenase (IDO) activity in Hela cells (Homo sapiens, UniProt P14902)
T2 construct: a certain concentration of IFN-γ can induce Hela cells to express IDO; host or cells: HeLa cells induced with IFN-γ
T2 sequence (P14902 whole entry): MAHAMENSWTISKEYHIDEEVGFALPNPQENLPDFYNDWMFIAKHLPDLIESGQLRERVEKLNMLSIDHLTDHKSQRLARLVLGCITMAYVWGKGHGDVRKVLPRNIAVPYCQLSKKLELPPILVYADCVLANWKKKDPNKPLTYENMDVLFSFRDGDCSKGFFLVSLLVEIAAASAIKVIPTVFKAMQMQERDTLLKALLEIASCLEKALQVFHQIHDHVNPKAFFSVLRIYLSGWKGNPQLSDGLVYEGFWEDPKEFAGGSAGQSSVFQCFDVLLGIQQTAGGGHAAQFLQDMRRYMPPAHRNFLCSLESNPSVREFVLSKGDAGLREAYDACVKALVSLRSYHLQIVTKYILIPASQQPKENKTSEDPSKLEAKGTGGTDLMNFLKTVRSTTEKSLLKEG
Experiment: IDO Intracellular Activity Inhibition Test (Ehrlich method, IFN-γ induced Hela cells)
Assay type: cell-based
Conditions: IDO activity in Hela cells induced by IFN-γ, 24 hours incubation, OD490
Description: IDO Intracellular Activity Inhibition Test
The effect of the compound of the present invention on the indoleamine 2,3-dioxygenase (IDO) activity in Hela cells induced by IFN-γ was evaluated by the Ehrlich method.
The principle underlined for this experiment is summarized as follows: The expression of IDO in Hela cells is low in the absence of any induction. However, a certain concentration of IFN-γ can induce Hela cells to express IDO, so that it can catalyze the production of N-formylkynurenine from tryptophan. The produced N-formylkynurenine can be hydrolyzed by trichloroacetic acid to kynurenine, then a color reaction of the achieved kynurenine with Ehrlich reagent can be used to detect the activity of IDO. The absorbance at 490 nm (OD490) is in proportion to the activity of IDO.
The compound was dissolved and diluted to 5 mM with DMSO (Sigma, catalog number: D5879), then serially diluted in 3 folds each time with DMSO to a minimum concentration of 2.29 μM. The diluent at each concentration point was further diluted in 50 folds with DMEM medium (ThermoFisher, catalog number: 11995073) free of FBS. If the IC50 value of the compound was very low, the initial concentration of the compound could be lowered. Hela cells (ATCC, catalog number CCL-2) were cultured in DMEM complete medium containing 10% FBS (GBICO, catalog number 10099-141) and 100 U/mL penicillin streptomycin mixture (ThermoFisher, catalog number 15140122). When the cell coverage in the culture vessel reached 80-90%, 0.25% pancreatin (containing EDTA) (ThermoFisher, catalog number 25200056) was used to digest and blow off the cells, and the cells were grown in a 96-well plate (Corning, catalog number 3599), 30,000 cells per well (80 μL DMEM medium). The 96-well plate was then incubated in an incubator (37° C., 5% CO2) overnight (18-20 hours).
10 μL of DMEM diluted compound and 10 μL of 500 ng/mL INF-γ were added to each well, and mixed gently. The 96-well plate was placed into an incubator (37° C., 5% CO2) for further incubation. The mixture was taken out and centrifuged at 2000×g at room temperature for 5 minutes after 24 hours of incubation, the supernatant was transferred to the reaction plate (Sigma, catalog number CLS3695), one-twentieth of trichloroacetic acid (Sigma, product number T9159) was added, and incubated at 60° C. after mixed well. 30 minutes later, the reaction plate was taken out and centrifuged at 2000×g at room temperature for 5 minutes, the supernatant was transferred to a clean reaction plate, equal volume of Ehrlich reagent was added, and the mixture was incubated at room temperature after mixed well. The OD490 of each well was determined 5 minutes later.
In the experiment, OD490 of the DMEM medium control group without IFN-γ was used as OD490100% inhbition; OD490 of the group in which the final concentration of IFN-γ in DMSO was 0.2% was used ads OD4900% inhbition.
The percent inhibition of IDO activity in Hela cells by a compound can be calculated by the following formula: […]
IC50 of a compound was calculated by the following formula using 8 concentration points and XLfit (ID Business Solutions Ltd., UK) software
Y=Bottom+(Top−Bottom)/(1+10^((log IC50−X)*slope factor))
where Y is inhibition percentage. Bottom is the bottom plateau of the S-type curve, Top is the top plateau of the S-type curve, X is the logarithm of the concentration of the tested compound, and slope factor is the slope coefficient of the curve.

`CC([C@H]1CC[C@@H](c2ccnc3ccc(F)cc32)CC1)n1[nH]c2cc(Cl)ccc2c1=O` (stereo partly shown) [Compound 4, 6-chloro-2-(1-((1s,4s)-4-(6-fluoroquinolin-4-yl)cyclohexyl)ethyl)-1,2-dihydro-3H-indazol-3-one] and `C[C@H]([C@H]1CC[C@@H](c2ccnc3ccc(F)cc32)CC1)n1[nH]c2cc(Cl)ccc2c1=O` [Compound 6, 6-chloro-2-((R)-1-((1s,4S)-4-(6-fluoroquinolin-4-yl)cyclohexyl)ethyl)-1,2-dihydro-3H-indazol-3-one] cannot be ordered by IC50: < 50 nM for the first, < 50 nM for the second.

`C[C@H]([C@H]1CC[C@@H](c2ccnc3ccc(F)cc32)CC1)n1[nH]c2ccc(Br)cc2c1=O` [Compound 11, 5-bromo-2-((R)-1-((1s,4S)-4-(6-fluoroquinolin-4-yl)cyclohexyl)ethyl)-1,2-dihydro-3H-indazol-3-one] and `C[C@H]([C@H]1CC[C@@H](c2ccnc3ccc(F)cc32)CC1)n1[nH]c2ccc(Cl)cc2c1=O` [Compound 7, 5-chloro-2-((R)-1-((1s,4S)-4-(6-fluoroquinolin-4-yl)cyclohexyl)ethyl)-1,2-dihydro-3H-indazol-3-one] cannot be ordered by IC50: < 50 nM for the first, < 50 nM for the second.

`C[C@H]([C@H]1CC[C@@H](c2ccnc3ccc(F)cc32)CC1)n1[nH]c2cc(Cl)cnc2c1=O` [Compound 8, 6-chloro-2-((R)-1-((1s,4S)-4-(6-fluoroquinolin-4-yl)cyclohexyl)ethyl)-1,2-dihydro-3H-pyrazolo[4,3-b]pyridin-3-one] and `C[C@H]([C@H]1CC[C@@H](c2ccnc3ccc(F)cc32)CC1)n1[nH]c2ncc(Cl)cc2c1=O` [Compound 9, 5-chloro-2-((R)-1-((1s,4S)-4-(6-fluoroquinolin-4-yl)cyclohexyl)ethyl)-1,2-dihydro-3H-pyrazolo[3,4-b]pyridin-3-one] cannot be ordered by IC50: < 50 nM for the first, < 50 nM for the second.

First: C[C@H]([C@H]1CC[C@@H](c2ccnc3ccc(F)cc32)CC1)n1[nH]c2cc(Cl)c(Cl)cc2c1=O [Compound 10, 5,6-dichloro-2-((R)-1-((1s,4S)-4-(6-fluoroquinolin-4-yl)cyclohexyl)ethyl)-1,2-dihydro-3H-indazol-3-one]
Second: CC([C@H]1CC[C@H](c2ccnc3ccc(F)cc32)CC1)n1[nH]c2cc(Cl)ccc2c1=O (stereo partly shown) [Compound 3, 6-chloro-2-(1-((1r,4r)-4-(6-fluoroquinolin-4-yl)cyclohexyl)ethyl)-1,2-dihydro-3H-indazol-3-one]
The IC50 of the first is lower: < 50 nM for the first, 50 to 200 nM for the second.

First: Cc1cc([C@H]2CC[C@@H]([C@@H](C)n3[nH]c4cc(Cl)ccc4c3=O)CC2)ccn1 [Compound 5, 6-chloro-2-((R)-1-((1s,4S)-4-(2-methylpyridin-4-yl)cyclohexyl)ethyl)-1,2-dihydro-3H-indazol-3-one]
Second: O=c1c2ccc(Cl)cc2[nH]n1C[C@H]1CC[C@H](c2ccnc3ccc(F)cc32)CC1 [Compound 1, 6-chloro-2-(((1r,4r)-4-(6-fluoroquinolin-4-yl)cyclohexyl)methyl)-1,2-dihydro-3H-indazol-3-one]
The IC50 of the first is lower: < 50 nM for the first, 50 to 200 nM for the second. The first is the more potent here.

In the case of `O=c1c2ccc(Cl)cc2[nH]n1C[C@H]1CC[C@@H](c2ccnc3ccc(F)cc32)CC1` [Compound 2, 6-chloro-2-(((1s,4s)-4-(6-fluoroquinolin-4-yl)cyclohexyl)methyl)-1,2-dihydro-3H-indazol-3-one], the IC50 is reported as < 50 nM.

System: CT26 tumors
Experiment: not given
Conditions: repeated administration; cited from earlier work

In the case of `NS(=O)(=O)NCCNc1nonc1C(=NO)Nc1ccc(F)c(Br)c1` [INCB-024360], the “expansion of CT26 tumors” value is given as “hinders the expansion of CT26 tumors”.

From US20210221808A1, “3-OXAZOLINONE COMPOUND, PREPARATION METHOD THEREFOR AND PHARMACEUTICAL APPLICATION THEREOF” (Beijing Innocare Pharma Tech Co., Ltd., priority 2018, published 2021)
